# Measurements reported in US11453660B2, “Androgen receptor and glucocorticoid receptor modulators” (ONCOSTELLAE, S.L., priority 2017, dated 2022).
# Tests used:
# [1] = target: T1, Human Glucocorticoid Receptor (Homo sapiens, UniProt P04150); test: Competition Binding in IM-9 Human Glucocorticoid Receptor (GR IM-9); settings: cytosol from IM-9 cell line, 1.5 nM [3H]-Dexamethasone, 4° C. for 6 hours
# T1 construct: endogenous in cells; host or cells: cytosol from IM-9 cell line
# T1 sequence (P04150 1-777): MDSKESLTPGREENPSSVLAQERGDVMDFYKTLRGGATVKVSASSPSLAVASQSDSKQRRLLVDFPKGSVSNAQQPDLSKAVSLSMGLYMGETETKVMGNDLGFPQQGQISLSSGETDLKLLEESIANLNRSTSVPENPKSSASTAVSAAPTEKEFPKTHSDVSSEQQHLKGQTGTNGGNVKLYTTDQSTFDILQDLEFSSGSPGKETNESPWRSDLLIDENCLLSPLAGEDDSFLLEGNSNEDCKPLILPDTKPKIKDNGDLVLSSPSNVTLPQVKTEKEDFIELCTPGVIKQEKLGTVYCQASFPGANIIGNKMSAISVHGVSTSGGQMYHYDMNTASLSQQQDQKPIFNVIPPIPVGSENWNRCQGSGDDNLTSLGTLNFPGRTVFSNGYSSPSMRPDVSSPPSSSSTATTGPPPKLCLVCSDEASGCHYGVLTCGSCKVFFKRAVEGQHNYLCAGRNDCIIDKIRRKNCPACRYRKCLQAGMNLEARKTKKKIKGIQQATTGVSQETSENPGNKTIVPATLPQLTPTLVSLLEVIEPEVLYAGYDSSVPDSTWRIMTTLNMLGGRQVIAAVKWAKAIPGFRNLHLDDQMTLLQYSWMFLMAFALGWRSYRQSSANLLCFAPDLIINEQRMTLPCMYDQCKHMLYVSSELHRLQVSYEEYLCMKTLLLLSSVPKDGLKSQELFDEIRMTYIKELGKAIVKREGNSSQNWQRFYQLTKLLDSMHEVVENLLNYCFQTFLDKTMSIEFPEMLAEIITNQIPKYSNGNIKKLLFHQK
# How it was run: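 Radioligand competition using 100 μg IM-9 cell cytosol and 1.5 nM [3H]-dexamethasone, incubated 6 h at 4° C in TES/molybdate buffer, pH 7.4. Filtration on PEI-treated GF/B filters, scintillation counting; nonspecific binding defined with 10 μM triamcinolone.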
# human androgen receptor = target: T2, human androgen receptor (Homo sapiens, UniProt P10275, T878A); test: Human Androgen Receptor Binding (radioligand binding, LnCap prostate cancer cell line); settings: LnCap cells, displacement of [^3H]-methyltrienolone, 2 hours at 37° C.; read-out: AR LNCaP
# T2 construct: endogenously expressed human androgen receptor using the LnCap prostate cancer cell line; endogenous in cells; host or cells: LNCaP prostate cancer cell line (whole cells)
# T2 sequence (P10275 1-920 T878A): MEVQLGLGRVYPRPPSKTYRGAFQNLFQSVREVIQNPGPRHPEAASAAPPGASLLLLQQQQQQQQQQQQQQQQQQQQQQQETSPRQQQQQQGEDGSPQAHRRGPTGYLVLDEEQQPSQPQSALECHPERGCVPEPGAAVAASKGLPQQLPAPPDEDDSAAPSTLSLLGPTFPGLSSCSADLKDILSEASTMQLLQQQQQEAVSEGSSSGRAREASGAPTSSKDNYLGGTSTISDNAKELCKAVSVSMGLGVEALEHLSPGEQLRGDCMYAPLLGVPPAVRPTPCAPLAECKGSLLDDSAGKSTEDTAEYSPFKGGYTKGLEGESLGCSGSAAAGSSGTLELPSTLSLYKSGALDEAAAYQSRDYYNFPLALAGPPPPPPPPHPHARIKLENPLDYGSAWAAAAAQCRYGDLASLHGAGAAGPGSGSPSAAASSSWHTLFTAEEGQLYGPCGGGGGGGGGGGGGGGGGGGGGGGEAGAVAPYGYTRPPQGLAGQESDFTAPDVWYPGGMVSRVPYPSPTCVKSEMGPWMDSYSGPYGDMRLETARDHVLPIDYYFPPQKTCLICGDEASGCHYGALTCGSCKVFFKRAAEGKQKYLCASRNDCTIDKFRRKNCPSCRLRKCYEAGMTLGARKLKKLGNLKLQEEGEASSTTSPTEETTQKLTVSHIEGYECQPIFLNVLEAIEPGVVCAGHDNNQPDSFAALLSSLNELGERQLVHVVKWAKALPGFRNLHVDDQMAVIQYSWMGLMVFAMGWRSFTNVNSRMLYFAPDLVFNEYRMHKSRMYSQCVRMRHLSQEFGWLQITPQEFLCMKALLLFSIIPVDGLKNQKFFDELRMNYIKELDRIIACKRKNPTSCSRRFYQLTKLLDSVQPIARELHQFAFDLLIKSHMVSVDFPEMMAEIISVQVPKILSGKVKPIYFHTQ
# How it was run: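 Whole-cell displacement of [3H]-methyltrienolone from endogenous AR (T878A) in LnCap cells, in RPMI with 0.1% BSA and triamcinolone acetonide. Compounds 10 μM to 0.1 nM in 1:10 steps, 2 h at 37 °C; cells washed, SDS-lysed, bound radioactivity by scintillation counting for IC50.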
Compound,IC50 [1] [nM],IC50 (human androgen receptor) [nM]
"CC(=O)C1=C(C)NC(C)=C(C(=O)OCC2CCOCC2)C1c1csc2ccccc12 (centres unmarked) [Example C2, (Tetrahydro-2H-pyran-4-yl)methyl 5-acetyl-4-(benzo[b]thiophen-3-yl)-2,6-dimethyl-1,4-dihydropyridine-3-carboxylate]",100 to 1000,≥ 1000
"CC(=O)C1=C(C)NC(C)=C(C(=O)OC2CCCCC2)C1c1csc2ncccc12 (centres unmarked) [Example C36, Cyclohexyl 5-acetyl-2,6-dimethyl-4-(thieno[2,3-b]pyridin-3-yl)-1,4-dihydropyridine-3-carboxylate]",< 100,100 to 1000
"CC(=O)C1=C(C)NC(C)=C(C(=O)OCc2ccccc2)C1c1csc2ccc(F)cc12 (centres unmarked) [Example C41, Benzyl 5-acetyl-4-(5-fluorobenzo[b]thiophen-3-yl)-2,6-dimethyl-1,4-dihydropyridine-3-carboxylate]",100 to 1000,≥ 1000
"CC(=O)C1=C(C)NC(C)=C(C(=O)OCC2CCOCC2)C1c1csc2ccc(Cl)cc12 (centres unmarked) [Example C43, (Tetrahydro-2H-pyran-4-yl)methyl 5-acetyl-4-(5-chlorobenzo[b]thiophen-3-yl)-2,6-dimethyl-1,4-dihydropyridine-3-carboxylate]",100 to 1000,≥ 1000
"CC(=O)C1=C(C)NC(C)=C(C(=O)OCC2CCOCC2)C1c1csc2ccc(F)cc12 (centres unmarked) [Example C44, (Tetrahydro-2H-pyran-4-yl)methyl 5-acetyl-4-(5-fluorobenzo[b]thiophen-3-yl)-2,6-dimethyl-1,4-dihydropyridine-3-carboxylate]",100 to 1000,≥ 1000
"COC(=O)C1=C(C=O)NC(C2CC2)=C(C(=O)OC)C1c1csc2c(C#N)cccc12 (centres unmarked) [Example C117, Dimethyl 4-(7-cyanobenzo[b]thiophen-3-yl)-2-cyclopropyl-6-formyl-1,4-dihydropyridine-3,5-dicarboxylate]",< 100,100 to 1000
"COC(=O)C1=C(CO)NC(C2CC2)=C(C(=O)OC)C1c1csc2c(C#N)cccc12 (centres unmarked) [Example C118, Dimethyl 4-(7-cyanobenzo[b]thiophen-3-yl)-2-cyclopropyl-6-(hydroxymethyl)-1,4-dihydropyridine-3,5-dicarboxylate]",< 100,< 100
"COC(=O)C1=C(C)NC(C=O)=C(C(=O)OC)C1c1csc2c(C#N)cccc12 (centres unmarked) [Example C119, Dimethyl 4-(7-cyanobenzo[b]thiophen-3-yl)-2-formyl-6-methyl-1,4-dihydropyridine-3,5-dicarboxylate]",< 100,≥ 1000
"CC1=C(C#N)C(c2csc3c(C#N)cccc23)C(C(=O)OCC2CC2)=C(N)N1 (centres unmarked) [Example D24, cyclopropylmethyl 2-amino-5-cyano-4-(7-cyanobenzo[b]thiophen-3-yl)-6-methyl-1,4-dihydropyridine-3-carboxylate]",< 100,100 to 1000

# Other lines, results leading:
IC50 [1] [nM],IC50 (human androgen receptor) [nM],Compound
100 to 1000,≥ 1000,"CC(=O)C1=C(C)NC(C)=C(C(=O)OCc2ccccc2)C1c1csc2ccccc12 (centres unmarked) [Example B6, Benzyl 5-acetyl-4-(benzo[b]thiophen-3-yl)-2,6-dimethyl-1,4-dihydro-pyridine-3-carboxylate]"
< 100,< 100,"CC(=O)C1=C(C)NC(C)=C(C(=O)OCC2CC2)C1c1csc2ncccc12 (centres unmarked) [Example C24, Cyclopropylmethyl 5-acetyl-2,6-dimethyl-4-(thieno[2,3-b]pyridin-3-yl)-1,4-dihydropyridine-3-carboxylate]"
< 100,100 to 1000,"CC(=O)C1=C(C)NC(C)=C(C(=O)OCc2ccccc2)C1c1csc2ncccc12 (centres unmarked) [Example C39, Benzyl 5-acetyl-2,6-dimethyl-4-(thieno[2,3-b]pyridin-3-yl)-1,4-dihydropyridine-3-carboxylate]"
< 100,≥ 1000,"CC(=O)C1=C(C)NC(C)=C(C(=O)OCc2ccccc2)C1c1csc2ccc(Cl)cc12 (centres unmarked) [Example C42, Benzyl 5-acetyl-4-(5-chlorobenzo[b]thiophen-3-yl)-2,6-dimethyl-1,4-dihydropyridine-3-carboxylate]"
< 100,100 to 1000,"CC(=O)C1=C(C)NC(C)=C(C(=O)OCc2ccncc2)C1c1csc2ccc(F)cc12 (centres unmarked) [Example C46, Pyridin-4-ylmethyl 5-acetyl-4-(5-fluorobenzo[b]thiophen-3-yl)-2,6-dimethyl-1,4-dihydropyridine-3-carboxylate]"
100 to 1000,≥ 1000,"CC(=O)C1=C(C)NC(C)=C(C(=O)OCc2cccnc2)C1c1csc2ccccc12 (centres unmarked) [Example C48, Pyridin-3-ylmethyl 5-acetyl-4-(benzo[b]thiophen-3-yl)-2,6-dimethyl-1,4-dihydropyridine-3-carboxylate]"
< 100,< 100,"CC(=O)C1=C(C)NC(C)=C(C(=O)OCc2cccnc2)C1c1csc2c(Br)cccc12 (centres unmarked) [Example C58, Pyridin-3-ylmethyl 5-acetyl-4-(7-bromobenzo[b]thiophen-3-yl)-2,6-dimethyl-1,4-dihydropyridine-3-carboxylate]"
< 100,≥ 1000,"CC(=O)C1=C(C)NC(C)=C(C(=O)OCc2ccc(Br)cc2)C1c1csc2ncccc12 (centres unmarked) [Example C65, 4-bromobenzyl 5-acetyl-2,6-dimethyl-4-(thieno[2,3-b]pyridin-3-yl)-1,4-dihydropyridine-3-carboxylate]"
< 100,100 to 1000,"CC(=O)C1=C(C)NC(C)=C(C(=O)OCc2cccc(Br)c2)C1c1csc2ncccc12 (centres unmarked) [Example C66, 3-bromobenzyl 5-acetyl-2,6-dimethyl-4-(thieno[2,3-b]pyridin-3-yl)-1,4-dihydropyridine-3-carboxylate]"
< 100,< 100,"CC(=O)C1=C(C)NC(C)=C(C(=O)OCc2ccccc2Br)C1c1csc2ncccc12 (centres unmarked) [Example C67, 2-bromobenzyl 5-acetyl-2,6-dimethyl-4-(thieno[2,3-b]pyridin-3-yl)-1,4-dihydropyridine-3-carboxylate]"
< 100,≥ 1000,"CC(=O)C1=C(C)NC(C)=C(C(=O)OC(C)(C)c2ccccc2)C1c1csc2ncccc12 (centres unmarked) [Example C71, 2-phenylpropan-2-yl 5-acetyl-2,6-dimethyl-4-(thieno[2,3-b]pyridin-3-yl)-1,4-dihydropyridine-3-carboxylate]"
< 100,≥ 1000,"CC(=O)C1=C(C)NC(C)=C(C(=O)OCc2cccc(C#N)c2)C1c1csc2ncccc12 (centres unmarked) [Example C72, 3-Cyanobenzyl 5-acetyl-2,6-dimethyl-4-(thieno[2,3-b]pyridin-3-yl)-1,4-dihydropyridine-3-carboxylate]"
< 100,≥ 1000,"CC(=O)C1=C(C)NC(C)=C(C(=O)OCc2ccc(C#N)cc2)C1c1csc2ncccc12 (centres unmarked) [Example C73, 4-cyanobenzyl 5-acetyl-2,6-dimethyl-4-(thieno[2,3-b]pyridin-3-yl)-1,4-dihydropyridine-3-carboxylate]"
